Key:
barnyardgrass [1] = assay: Test A pre-/postemergence herbicide test; type: in vivo, Echinochloa crus-galli
Summary of the method: (§1)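 Plants are held in greenhouse about ten days after treatment, then compared with untreated controls and scored 0 (no effect) to 100 (complete control). Preemergence dosing is a directed soil spray on sown sandy loam; postemergence dosing is spray to runoff at 2–10 cm height.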

morningglory = assay: Test A pre-/postemergence herbicide test; type: in vivo, Ipomoea spp.
Summary of the method: as §1

barnyardgrass [2] = assay: Test B pre-/postemergence herbicide test; type: in vivo, Echinochloa crus-galli
Summary of the method: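 Response was scored visually 13 to 15 days after treatment against untreated greenhouse controls, 0 meaning no effect and 100 complete control. Formulations (solvent mixture plus surfactant) went onto soil after planting, onto foliage of 1- to 4-leaf plants, and onto 2-leaf plants in a flooded paddy set including rice and barnyardgrass.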

large crabgrass = assay: Test B pre-/postemergence herbicide test; type: in vivo, Digitaria sanguinalis
Summary of the method: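 Greenhouse pot assay with simultaneous preemergence (treated seed) and postemergence (2–18 cm seedlings) applications of surfactant-containing, non-phytotoxic solvent formulations. Response scored visually 13–15 days later on a 0–100 scale, 100 meaning complete control.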

woolly cupgrass = assay: Test C pre-/postemergence herbicide test; type: in vivo, Eriochloa villosa; conditions: for Cupgrass, Woolly plant response rating: Preemergence, 500 g ai/ha, scale 0 to 100, 0 no effect, 100 complete control
Summary of the method: (§2)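 Greenhouse-grown plants were evaluated visually 12 to 14 days after treatment, with 100 meaning complete control and 0 no effect. Application was preemergence, or postemergence at 2 to 18 cm.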

johnsongrass = assay: Test C pre-/postemergence herbicide test; type: in vivo, Sorghum halepense; conditions: for Johnsongrass plant response rating: Preemergence, 500 g ai/ha, scale 0 to 100, 0 no effect, 100 complete control
Summary of the method: as §2

lambsquarters = assay: Test C pre-/postemergence herbicide test; type: in vivo, Chenopodium album; conditions: for Lambsquarters plant response rating: Preemergence, 500 g ai/ha, scale 0 to 100, 0 no effect, 100 complete control
Summary of the method: as §2

[3] = Postemergence, 500 g ai/ha, 0 to 100 scale, 0 no effect, 100 complete control
[4] = Postemergence, 2000 g ai/ha, 0 to 100 scale, 0 no effect, 100 complete control
[5] = Preemergence, 2000 g ai/ha, visual rating, 0 to 100 scale (0 no effect, 100 complete control)
[6] = preemergence, 500 g ai/ha, visual injury, 0 to 100 scale (0 no effect, 100 complete control)
[7] = 125 g ai/ha, 0 = no effect, 100 = complete control, preemergence
[8] = 500 g ai/ha, visual rating 0-100, 0 no effect, 100 complete control, preemergence
[9] = postemergence, 125 g ai/ha, visual rating, scale 0 (no effect) to 100 (complete control)
[10] = postemergence, 500 g ai/ha, visual rating, scale 0 (no effect) to 100 (complete control)
[11] = 62 g ai/ha, preemergence, scale 0 to 100
[12] = 125 g ai/ha, scale 0 (no effect) to 100 (complete control), visual, 12 to 14 days, preemergence
[13] = 250 g ai/ha, scale 0-100, preemergence
[14] = Preemergence, 500 g ai/ha, visual rating, 0 to 100 scale (0 no effect, 100 complete control)
[15] = Preemergence, 2000 g ai/ha, 0 to 100 scale, 0 no effect, 100 complete control
[16] = Postemergence, 500 g ai/ha, visual rating after 13 to 15 days, scale 0 (no effect) to 100 (complete control)
[17] = Preemergence, 500 g ai/ha, scale 0 to 100
[18] = preemergence, 125 g ai/ha, 0 to 100 scale, 0 is no effect, 100 is complete control
[19] = 250 g ai/ha, scale 0 to 100 (0 no effect, 100 complete control), visual, 12 to 14 days, preemergence

Structure (SMILES): CCN(CC)C(=O)c1cccc(NC(=O)c2sc(C(C)(C)C)nc2C)c1 [Compound 199]
- Barnyardgrass plant response rating (barnyardgrass [1]; [3]): 10
- Plant response rating, Barnyardgrass (barnyardgrass [1]; [4]): 80
- Barnyardgrass plant response rating (barnyardgrass [1]; [5]): 95
- Barnyardgrass plant response rating (barnyardgrass [1]; [6]): 55
- Morningglory plant response rating (morningglory; [3]): 45
- Plant response rating, Morningglory (morningglory; [4]): 70
- Morningglory plant response rating (morningglory; [5]): 55
- Morningglory plant response rating (morningglory; [6]): 15
- Barnyardgrass plant response rating (0 to 100 scale) (barnyardgrass [2]; [7]): 20
- Plant response rating, Barnyardgrass (barnyardgrass [2]; [8]): 90
- Barnyardgrass plant response rating (barnyardgrass [2]; [9]): 0
- Barnyardgrass plant response rating (barnyardgrass [2]; [10]): 10
- Crabgrass, Large plant response rating (0 to 100 scale) (large crabgrass; [7]): 90
- Plant response rating, Crabgrass, Large (large crabgrass; [8]): 100
- Crabgrass, Large plant response rating (large crabgrass; [9]): 10
- Crabgrass, Large plant response rating (large crabgrass; [10]): 10
- Plant response rating, Cupgrass, Woolly (woolly cupgrass; [11]): 0
- Plant response rating, Cupgrass, Woolly (woolly cupgrass; [12]): 0
- Plant response rating, Cupgrass, Woolly (woolly cupgrass; [13]): 40
- Cupgrass, Woolly plant response rating (woolly cupgrass): 70
- Plant response rating, Johnsongrass (johnsongrass; [11]): 0
- Plant response rating, Johnsongrass (johnsongrass; [12]): 30
- Plant response rating, Johnsongrass (johnsongrass; [13]): 60
- Johnsongrass plant response rating (johnsongrass): 90
- Plant response rating, Lambsquarters (lambsquarters; [11]): 80
- Plant response rating, Lambsquarters (lambsquarters; [12]): 95
- Plant response rating, Lambsquarters (lambsquarters; [13]): 100
- Lambsquarters plant response rating (lambsquarters): 100

Structure (SMILES): CCN1CCc2c(NC(=O)c3cc(C(C)(C)C)nn3CC)cccc2C1=O [Compound 63]
- Plant response rating, Barnyardgrass (barnyardgrass [1]; [3]): 60
- Plant response rating, Barnyardgrass (barnyardgrass [1]; [4]): 90
- Barnyardgrass plant response rating (barnyardgrass [1]; [14]): 70
- Barnyardgrass plant response rating (barnyardgrass [1]; [15]): 100
- Plant response rating, Morningglory (morningglory; [3]): 15
- Plant response rating, Morningglory (morningglory; [4]): 15
- Morningglory plant response rating (morningglory; [14]): 10
- Morningglory plant response rating (morningglory; [15]): 70
- Plant response rating, Barnyardgrass (barnyardgrass [2]; [16]): 20
- Barnyardgrass plant response rating (barnyardgrass [2]; [17]): 100
- Barnyardgrass plant response rating (barnyardgrass [2]; [9]): 10
- Plant response rating, Barnyardgrass (barnyardgrass [2]; [18]): 60
- Plant response rating, Crabgrass, Large (large crabgrass; [16]): 20
- Crabgrass, Large plant response rating (large crabgrass; [17]): 100
- Crabgrass, Large plant response rating (large crabgrass; [9]): 10
- Plant response rating, Crabgrass, Large (large crabgrass; [18]): 70
- Plant response rating (0 = no effect, 100 = complete control), Cupgrass, Woolly (woolly cupgrass; 62 g ai/ha, preemergence): 0
- Plant response rating, Cupgrass, Woolly (woolly cupgrass; [12]): 0
- Plant response rating, Cupgrass, Woolly (woolly cupgrass; [19]): 0
- Cupgrass, Woolly plant response rating (woolly cupgrass): 5
- Plant response rating (0 = no effect, 100 = complete control), Johnsongrass (johnsongrass; 62 g ai/ha, preemergence): 30
- Plant response rating, Johnsongrass (johnsongrass; [12]): 60
- Plant response rating, Johnsongrass (johnsongrass; [19]): 75
- Johnsongrass plant response rating (johnsongrass): 100
- Plant response rating (0 = no effect, 100 = complete control), Lambsquarters (lambsquarters; 62 g ai/ha, preemergence): 30
- Plant response rating, Lambsquarters (lambsquarters; [12]): 95
- Plant response rating, Lambsquarters (lambsquarters; [19]): 100
- Lambsquarters plant response rating (lambsquarters): 100

From US20060069132A1, “Azolecarboxamide herbicides” (priority 2004, published 2006)
